Experimental data: patent US20230293405A1, “Compositions Comprising UV-Filters and One or More (Bio)-Alkanediols” (Symrise AG, priority 2020, published 2023)

Tests used:
[1] = Sensory properties of oil component blended with alkanediol, assessed by untrained panelists on the backside of the hand; format: in vivo; settings: scale 1 (low) to 5 (high absorption)
Description: For evaluating the sensory behavior, oil components specified in the following Table 13 were blended with 1,2-heptanediol or 2,3-heptanediol or a mixture of 1,2-heptanediol and 2,3-heptanediol or 1,2-octanediol or 2,3-octanediol or a mixture of 1,2-octanediol and 2,3-octanediol (formulation) and assessed by untrained panelists in comparison to the oil component without addition of the specified alkanediols (placebo).
Test procedure: • Hands were pre-washed with liquid soap by following a defined procedure; • 30 μl of corresponding sample was applied on the backside of each hand (randomized); • After 30 s the spreading behavior of the respective formulation on skin was evaluated versus the respective oil component without 1,2-heptanediol on a scale from 1 to 5 (1=low spreading; 5=high spreading); • The samples were distributed with the fingertips of middle and forefinger with 2×5 cycles; • After 2 minutes, the fatty/greasy skin feeling was evaluated on a scale from 1 to 5 (1=low fatty/greasy skin feeling; 5=high fatty/greasy skin feeling); • Furthermore, the applicants were asked to assess the absorption, i.e. the impression of amount of remaining residue on the skin on a scale from 1 to 5 (1=low absorption; 5=high absorption).

[2] = Solubility of alkanediols in water (visual observation); settings: assessed at ambient temperature after 24 h storage at 5° C.
[3] = in Caprylic Capric Triglyceride (neutral oil)
[4] = in Helianthus Annuus (Sunflower) Seed Oil

Structure (SMILES) | Absorption/remaining residue with ([1]; in Argan Oil) | Absorption/remaining residue with ([1]; in Avocado Oil) | Absorption/remaining residue with ([1]; in Cacao butter) | Absorption/remaining residue with ([1]; in Castor Oil) | Absorption/remaining residue with ([1]; in Coconut Oil) | Absorption/remaining residue with ([1]; in Grapeseed Oil) | Absorption/remaining residue with [1, 4] | Absorption/remaining residue with ([1]; in Olive Oil) | Maximum solubility in water (% by weight) [2] | further results
CCCCCC(O)CO (stereo not shown) [1,2-heptanediol] | 2.8 | 2.6 | 3.6 | 4 | 2 | 2.8 | 2 | 2.4 | 2.5 % by weight | Absorption/remaining residue with ([1]; in Butyrospermum Parkii (Shea) Butter): 2.7; Absorption/remaining residue with [1, 3]: 2.7; Absorption/remaining residue with ([1]; in Cetearyl Nonanoate (SymMollient S)): 2; Absorption/remaining residue with ([1]; in Chlorella oil (biotech)): 3; Absorption/remaining residue with ([1]; in Ethylhexyl Methoxycinnamate (Neo Heliopan AV)): 3; Absorption/remaining residue with ([1]; in Ethylhexyl Salicylate (Neo Heliopan OS)): 2.2; Absorption/remaining residue with ([1]; in Hexyldecanol (Eutanol G)): 2.7; Absorption/remaining residue with ([1]; in Homosalate (Neo Heliopan HMS)): 2.5; Absorption/remaining residue with ([1]; in Isoamyl p-Methoxycinnamate (Neo Heliopan E 1000)): 2.5; Absorption/remaining residue with ([1]; in Microalgae oil): 2.5; Absorption/remaining residue with ([1]; in Octocrylene (Neo Heliopan 303)): 2.7; Absorption/remaining residue with ([1]; in Propanediol Dicaprylate/Dicaprate (Symollient PDCC)): 2.4; Absorption/remaining residue with ([1]; in Prunus Amygdalus Dulcis (Sweet Almond) Oil): 2.2; Absorption/remaining residue with ([1]; in Simmondsia Chinensis (Jojoba) Seed Oil): 2.5
CCCCCCCC(O)CO (stereo not shown) [1,2-nonanediol] |  |  |  |  |  |  |  |  | 0.1 % by weight | 
CCCCCCC(O)CO (stereo not shown) [1,2-octanediol] | 2.6 | 2.6 | 3 |  | 3 | 1.6 | 2 | 2.6 |  | 

More lines, main results first:

Absorption/remaining residue with ([1]; in Argan Oil) | Absorption/remaining residue with ([1]; in Avocado Oil) | Absorption/remaining residue with ([1]; in Cacao butter) | Absorption/remaining residue with ([1]; in Castor Oil) | Absorption/remaining residue with ([1]; in Coconut Oil) | Absorption/remaining residue with ([1]; in Grapeseed Oil) | Absorption/remaining residue with [1, 4] | Absorption/remaining residue with ([1]; in Olive Oil) | Maximum solubility in water (% by weight) [2] | Structure (SMILES) | further results
2.4 | 2.4 | 3.2 | 3.8 | 2.4 | 2.2 | 2.6 | 2 | 3.6 % by weight | CCCCC(O)C(C)O (stereo not shown) [2,3-heptanediol] | Absorption/remaining residue with [1, 3]: 3
 |  |  |  |  |  |  |  | 0.3 % by weight | CCCCCCC(O)C(C)O (stereo not shown) [2,3-nonanediol] | 
2.2 | 2.4 | 2.8 | 3 | 2.6 | 2.4 | 3.4 | 2.6 | 1.5 % by weight | CCCCCC(O)C(C)O (stereo not shown) [2,3-octanediol] | 
 |  |  |  |  |  |  |  | 0.5 % by weight | CCCCCCC(O)CO (stereo not shown) [Hydrolite ® 8, Caprylyl Glycol] | 
